In US8859574B2 (IRM LLC, priority 2008, dated 2014) one finds IC50 data, which are given here for 21 molecules.

For this assay, the target named is T1, IGF-1R Ba/F3 (Homo sapiens, UniProt P08069).
T1 construct: fused on or other part: TEL- (or BCR-) IGF-1R in Ba/F3: the kinase part holds the site
T1 sequence (P08069 999-1274 limits assumed): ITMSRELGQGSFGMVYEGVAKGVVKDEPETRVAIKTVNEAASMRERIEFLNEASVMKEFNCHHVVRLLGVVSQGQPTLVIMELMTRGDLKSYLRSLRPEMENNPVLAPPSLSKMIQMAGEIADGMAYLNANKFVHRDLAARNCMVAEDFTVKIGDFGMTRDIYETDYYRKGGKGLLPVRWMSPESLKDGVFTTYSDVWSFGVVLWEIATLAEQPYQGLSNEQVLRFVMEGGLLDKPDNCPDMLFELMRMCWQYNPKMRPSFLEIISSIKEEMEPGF
Description: Ba/F3 Cell Viability Inhibition Assay (IGF-1R Ba/F3). Format: cell-based, murine. The following applies: Tel-TK transformed Ba/F3 cells, 48 hours, Britelite luminescence. Summed up: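 A 48 h compound treatment at 37 °C (3750 cells/well) was followed by Britelite luminescence to measure viability. Cells were Ba/F3 pro-B cells, IL-3-independent via TEL-fused IGF-1R kinase transduction. A logistic fit gave IC50 as 50% viability relative to DMSO control.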
As for `Cc1cc(C2CCNCC2)c(C)cc1Nc1ncc(Cl)c(Nc2cc(C(F)(F)F)[nH]n2)n1` [Compound 215, 5-chloro-N2-(2,5-dimethyl-4-(piperidin-4-yl)phenyl)-N4-(5-(trifluoromethyl)-1H-pyrazol-3-yl)pyrimidine-2,4-diamine], the IC50 is 47 nM. Then `Cc1cc(Nc2nc(Nc3cc(C)c(C4CCN(C(=O)c5nc(C)oc5C(F)(F)F)CC4)cc3F)ncc2Cl)n[nH]1` [Compound 141, (4-(4-(5-chloro-4-(5-methyl-1H-pyrazol-3-ylamino)pyrimidin-2-ylamino)-5-fluoro-2-methylphenyl)piperidin-1-yl)(2-methyl-5-(trifluoromethyl)oxazol-4-yl)methanone], with 69 nM; and `Cc1cc(Nc2nc(Nc3cc(C)c(C4CCN(C(=O)C5(N(C)C)CC5)CC4)cc3F)ncc2Cl)n[nH]1` [Compound 94, (4-(4-(5-chloro-4-(5-methyl-1H-pyrazol-3-ylamino)pyrimidin-2-ylamino)-5-fluoro-2-methylphenyl)piperidin-1-yl)(1-(dimethylamino)cyclopropyl)methanone], with 13 nM. Then `CNC(=O)CN1CCC(c2cc(F)c(Nc3ncc(Cl)c(Nc4cc(C)[nH]n4)n3)cc2C)CC1` [Compound 42, 2-(4-(4-(5-chloro-4-(5-methyl-1H-pyrazol-3-ylamino)pyrimidin-2-ylamino)-5-fluoro-2-methylphenyl)piperidin-1-yl)-N-methylacetamide], with 19 nM; and `Cc1cc(Nc2nc(Nc3cc(C)c(C4CCN(Cc5noc(C)n5)CC4)cc3F)ncc2Cl)n[nH]1` [Compound 292, 5-chloro-N2-(2-fluoro-5-methyl-4-(1-((5-methyl-1,2,4-oxadiazol-3-yl)methyl)piperidin-4-yl)phenyl)-N4-(5-methyl-1H-pyrazol-3-yl)pyrimidine-2,4-diamine], with 23 nM.

`Cc1cc(Nc2nc(Nc3cc(C)c(C4CCNC(C)C4)cc3F)ncc2Cl)n[nH]1` (stereo not drawn) [Compound 273, 5-chloro-N2-(2-fluoro-5-methyl-4-(2-methylpiperidin-4-yl)phenyl)-N4-(5-methyl-1H-pyrazol-3-yl)pyrimidine-2,4-diamine] yielded an IC50 of 18 nM. To `Cc1cc(Nc2nc(Nc3cc(C)c(C4CCN(C5CCS(=O)(=O)C5)CC4)cc3F)ncc2Cl)n[nH]1` (stereo not drawn) [Compound 145, 5-chloro-N^2-(2-fluoro-5-methyl-4-(1-(tetrahydro-1,1-dioxido-3-thienyl)piperidin-4-yl)phenyl)-N^4-(5-methyl-1H-pyrazol-3-yl)pyrimidine-2,4-diamine] belongs 18 nM; to `Cc1cc(Nc2nc(Nc3cc(C(F)(F)F)c(N4CCN(C)CC4)cc3C)ncc2Cl)n[nH]1` [Compound 156, 5-chloro-N4-(5-methyl-1H-pyrazol-3-yl)-N2-(2-methyl-4-(4-methylpiperazin-1-yl)-5-(trifluoromethyl)phenyl)pyrimidine-2,4-diamine], 40 nM; to `Cc1cc(Nc2nc(Nc3cc(C)c(C4CCN(C(=O)CCN(C)C)CC4)cc3C)ncc2Cl)n[nH]1` [Compound 239, 1-(4-(4-(5-chloro-4-(5-methyl-1H-pyrazol-3-ylamino)pyrimidin-2-ylamino)-2,5-dimethylphenyl)piperidin-1-yl)-3-(dimethylamino)propan-1-one], 73 nM. Then `Cc1cc(Nc2nc(Nc3cc(Cl)c(C4CCN(CCC(F)(F)F)CC4)cc3C)ncc2Cl)n[nH]1` [Compound 27, 5-chloro-N2-(5-chloro-2-methyl-4-(1-(3,3,3-trifluoropropyl)piperidin-4-yl)phenyl)-N4-(5-methyl-1H-pyrazol-3-yl)pyrimidine-2,4-diamine], with 44 nM; and `CNC(=O)CN1CCC(c2cc(C)c(Nc3ncc(Cl)c(Nc4cc(C)[nH]n4)n3)cc2C)CC1` [Compound 38, 2-(4-(4-(5-chloro-4-(5-methyl-1H-pyrazol-3-ylamino)pyrimidin-2-ylamino)-2,5-dimethylphenyl)piperidin-1-yl)-N-methylacetamide], with 10 nM; and `Cc1cc(Nc2nc(Nc3cc(C)c(C4CCN(Cc5nc(C(C)C)no5)CC4)cc3C)ncc2Cl)n[nH]1` [Compound 260, 5-chloro-N2-(4-(1-((3-isopropyl-1,2,4-oxadiazol-5-yl)methyl)piperidin-4-yl)-2,5-dimethylphenyl)-N4-(5-methyl-1H-pyrazol-3-yl)pyrimidine-2,4-diamine], with 18 nM. To `CNC(C)C(=O)N1CCC(c2cc(F)c(Nc3ncc(Cl)c(Nc4cc(C)[nH]n4)n3)cc2C)CC1` (stereo not drawn) [Compound 85, 1-(4-(4-(5-chloro-4-(5-methyl-1H-pyrazol-3-ylamino)pyrimidin-2-ylamino)-5-fluoro-2-methylphenyl)piperidin-1-yl)-2-(methylamino)propan-1-one] belongs 42 nM. With `Cc1cc(Nc2nc(Nc3cc(C)c(C4CCN(C(=O)[C@]5(C)CCCN5)CC4)cc3F)ncc2Cl)n[nH]1` [Compound 138, (S)-(4-(4-(5-chloro-4-(5-methyl-1H-pyrazol-3-ylamino)pyrimidin-2-ylamino)-5-fluoro-2-methylphenyl)piperidin-1-yl)(2-methylpyrrolidin-2-yl)methanone], inhibition was half-maximal at 91 nM (IC50). In turn, `CCC(C(N)=O)N1CCC(c2cc(C)c(Nc3ncc(Cl)c(Nc4cc(C)[nH]n4)n3)cc2C)CC1` (stereo not drawn) [Compound 185, 2-(4-(4-(5-chloro-4-(5-methyl-1H-pyrazol-3-ylamino)pyrimidin-2-ylamino)-2,5-dimethylphenyl)piperidin-1-yl)butanamide] came in with an IC50 of 9 nM. To `Cc1cc(Nc2nc(Nc3cc(C)c(C4CCCN(C(=O)C5(N)CC5)C4)cc3C)ncc2Cl)n[nH]1` (stereo not drawn) [Compound 187, (1-aminocyclopropyl)(3-(4-(5-chloro-4-(5-methyl-1H-pyrazol-3-ylamino)pyrimidin-2-ylamino)-2,5-dimethylphenyl)piperidin-1-yl)methanone] belongs 95 nM. With `Cc1cc(C2CCN(C3CC3)CC2)c(C)cc1Nc1ncc(Cl)c(Nc2cc(C3CC3)[nH]n2)n1` [Compound 258, 5-chloro-N4-(5-cyclopropyl-1H-pyrazol-3-yl)-N2-(4-(1-cyclopropylpiperidin-4-yl)-2,5-dimethylphenyl)pyrimidine-2,4-diamine], 26 nM corresponded to half-maximal inhibition (IC50). Then `Cc1cc(Nc2nc(Nc3cc(C)c(C4CCN(C(=O)CN5CCOCC5)CC4)cc3C)ncc2Cl)n[nH]1` [Compound 102, 1-(4-(4-(5-chloro-4-(5-methyl-1H-pyrazol-3-ylamino)pyrimidin-2-ylamino)-2,5-dimethylphenyl)piperidin-1-yl)-2-morpholinoethanone], with 9 nM; and `CNC(=O)CN1CCC(c2cc(F)c(Nc3ncc(Cl)c(Nc4cc(C(F)(F)F)[nH]n4)n3)cc2C)CC1` [Compound 172, 2-(4-(4-(5-chloro-4-(5-(trifluoromethyl)-1H-pyrazol-3-ylamino)pyrimidin-2-ylamino)-5-fluoro-2-methylphenyl)piperidin-1-yl)-N-methylacetamide], with 69 nM.

In turn, `Cc1cc(C2CCNCC2)c(C)cc1Nc1ncc(Cl)c(Nc2cc(C3CC3)[nH]n2)n1` [Compound 18, 5-chloro-N4-(5-cyclopropyl-1H-pyrazol-3-yl)-N2-(2,5-dimethyl-4-(piperidin-4-yl)phenyl)pyrimidine-2,4-diamine] had an IC50 of 95 nM. Then `Cc1cc(Nc2nc(Nc3cc(C)c(C4CCN([C@@H](C)C(N)=O)CC4)cc3F)ncc2Cl)n[nH]1` [Compound 163], with 56 nM.
